Assay type in all cases: ADME
Holding throughout (design): scale not given: the % may be the effect or the level left

For series [1], the target named is T1, CYP2C19 (Homo sapiens, UniProt P33261). The series can be described thus: Inhibition of CYP2C19 in human liver microsomes assessed as enzyme-mediated metabolite formation at 10 uM using (S)-mephenytoin as substrate preincubated for 20 mins followed by substrate addition measured after 30 mins in presence of NADPH by LC-MS/MS analysis relative to control. Conditions: probe (S)-mephenytoin, read-out: Activity. (Liver microsomes are vesicles of endoplasmic reticulum, rich in cytochrome P450 enzymes.)
T1 sequence (P33261 whole entry): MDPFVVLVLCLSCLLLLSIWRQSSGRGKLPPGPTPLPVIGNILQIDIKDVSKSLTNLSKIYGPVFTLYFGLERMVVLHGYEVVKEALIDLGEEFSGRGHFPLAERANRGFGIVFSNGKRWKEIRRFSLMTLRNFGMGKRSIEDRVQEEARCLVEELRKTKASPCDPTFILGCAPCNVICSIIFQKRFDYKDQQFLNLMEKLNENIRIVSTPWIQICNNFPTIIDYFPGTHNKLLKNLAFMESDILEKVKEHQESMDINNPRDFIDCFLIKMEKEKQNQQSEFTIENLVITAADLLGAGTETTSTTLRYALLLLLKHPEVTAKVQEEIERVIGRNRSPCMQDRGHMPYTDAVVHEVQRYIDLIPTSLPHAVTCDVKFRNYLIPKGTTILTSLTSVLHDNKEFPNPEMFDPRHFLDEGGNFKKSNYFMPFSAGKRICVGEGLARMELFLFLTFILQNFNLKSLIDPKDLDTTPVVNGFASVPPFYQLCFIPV

The target in another series is CYP3A4 (Homo sapiens, UniProt P08684). The series can be described thus: Inhibition of CYP3A4 in human liver microsomes assessed as enzyme-mediated metabolite formation at 0.3 uM using midazolam as substrate incubated for 5 mins followed by NADPH addition measured after 30 mins by LC-MS/MS analysis relative to control. The note with it: probe midazolam, read-out: Activity.
Chain of CYP3A4 (P08684 whole entry): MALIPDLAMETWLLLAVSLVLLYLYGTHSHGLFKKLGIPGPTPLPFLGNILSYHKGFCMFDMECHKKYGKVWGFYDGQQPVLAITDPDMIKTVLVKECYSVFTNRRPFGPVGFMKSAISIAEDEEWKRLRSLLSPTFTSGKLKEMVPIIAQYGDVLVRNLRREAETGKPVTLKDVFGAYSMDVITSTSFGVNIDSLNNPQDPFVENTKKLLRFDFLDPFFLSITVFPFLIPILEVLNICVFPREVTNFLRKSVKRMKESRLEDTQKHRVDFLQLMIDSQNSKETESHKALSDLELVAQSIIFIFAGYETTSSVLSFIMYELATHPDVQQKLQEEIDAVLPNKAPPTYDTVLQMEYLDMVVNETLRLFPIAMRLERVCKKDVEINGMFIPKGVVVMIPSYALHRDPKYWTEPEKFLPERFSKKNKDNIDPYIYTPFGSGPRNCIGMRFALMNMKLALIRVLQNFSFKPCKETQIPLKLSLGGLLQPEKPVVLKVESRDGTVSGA

The next series concerns the target T2, CYP2C8 (Homo sapiens, UniProt P10632).
T2 sequence (P10632 whole entry): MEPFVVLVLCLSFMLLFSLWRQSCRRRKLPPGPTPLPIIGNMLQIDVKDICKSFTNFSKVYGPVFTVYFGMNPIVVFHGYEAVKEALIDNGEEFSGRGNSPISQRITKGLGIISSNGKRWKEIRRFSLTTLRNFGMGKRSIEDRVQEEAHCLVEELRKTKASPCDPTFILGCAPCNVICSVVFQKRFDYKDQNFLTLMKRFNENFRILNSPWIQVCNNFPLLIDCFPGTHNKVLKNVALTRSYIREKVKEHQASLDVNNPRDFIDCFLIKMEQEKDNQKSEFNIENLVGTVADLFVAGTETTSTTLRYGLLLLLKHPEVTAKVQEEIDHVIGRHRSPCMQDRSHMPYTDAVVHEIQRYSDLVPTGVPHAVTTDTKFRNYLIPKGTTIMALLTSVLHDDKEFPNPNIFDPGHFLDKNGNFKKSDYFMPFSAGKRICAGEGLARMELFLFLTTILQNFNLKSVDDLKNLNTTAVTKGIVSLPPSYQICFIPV
Nature of the series: Inhibition of CYP2C8 in human liver microsomes assessed as enzyme-mediated metabolite formation at 30 uM using paclitaxel as substrate incubated for 5 mins followed by NADPH addition measured after 30 mins by LC-MS/MS analysis relative to control. Conditions: probe paclitaxel, read-out: Activity.

A further series deals with T3, CYP1A2 (Homo sapiens, UniProt P05177).
T3 sequence (P05177 whole entry): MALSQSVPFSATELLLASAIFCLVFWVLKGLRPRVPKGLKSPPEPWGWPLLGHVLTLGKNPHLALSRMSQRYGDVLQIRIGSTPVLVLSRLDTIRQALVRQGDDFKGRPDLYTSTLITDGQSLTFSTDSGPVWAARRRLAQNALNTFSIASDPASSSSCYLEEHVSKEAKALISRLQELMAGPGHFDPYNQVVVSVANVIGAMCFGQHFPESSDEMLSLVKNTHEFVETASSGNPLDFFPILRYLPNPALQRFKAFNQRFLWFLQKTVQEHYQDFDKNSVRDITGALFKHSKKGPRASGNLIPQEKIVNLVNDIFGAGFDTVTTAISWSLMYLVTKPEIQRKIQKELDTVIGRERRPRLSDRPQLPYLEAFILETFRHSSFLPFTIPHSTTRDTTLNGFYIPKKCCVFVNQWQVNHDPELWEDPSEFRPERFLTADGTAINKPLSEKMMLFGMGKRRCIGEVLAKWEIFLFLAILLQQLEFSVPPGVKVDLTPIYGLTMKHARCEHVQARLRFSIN
The series can be described thus: Inhibition of CYP1A2 in human liver microsomes assessed as enzyme-mediated metabolite formation at 0.3 uM using phenacetin as substrate preincubated for 20 mins followed by substrate addition measured after 30 mins in presence of NADPH by LC-MS/MS analysis relative to control. The note with it: probe phenacetin, read-out: Activity.

The next series deals with CYP2D6 (Homo sapiens, UniProt P10635). The series can be described thus: Inhibition of CYP2D6 in human liver microsomes assessed as enzyme-mediated metabolite formation at 30 uM using dextromethorphan as substrate preincubated for 20 mins followed by substrate addition measured after 30 mins in presence of NADPH by LC-MS/MS analysis relative to control. Conditions: probe dextromethorphan, read-out: Activity.
Chain of CYP2D6 (P10635 whole entry): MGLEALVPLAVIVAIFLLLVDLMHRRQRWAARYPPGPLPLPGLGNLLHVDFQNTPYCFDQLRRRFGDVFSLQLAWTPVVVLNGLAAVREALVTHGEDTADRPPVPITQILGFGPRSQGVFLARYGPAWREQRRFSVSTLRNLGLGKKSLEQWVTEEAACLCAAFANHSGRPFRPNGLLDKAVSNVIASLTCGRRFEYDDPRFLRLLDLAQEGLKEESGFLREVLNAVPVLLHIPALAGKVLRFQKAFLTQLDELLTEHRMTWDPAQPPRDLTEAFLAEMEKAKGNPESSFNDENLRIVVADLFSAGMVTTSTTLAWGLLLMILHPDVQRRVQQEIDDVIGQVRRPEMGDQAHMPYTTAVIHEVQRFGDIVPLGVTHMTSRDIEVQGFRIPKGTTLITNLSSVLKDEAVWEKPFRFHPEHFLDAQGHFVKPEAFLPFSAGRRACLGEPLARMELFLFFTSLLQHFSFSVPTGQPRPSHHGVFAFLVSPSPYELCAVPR

Series [2] concerns the target T1, CYP2C19. Nature of the series: Inhibition of CYP2C19 in human liver microsomes assessed as enzyme-mediated metabolite formation at 0.1 uM using (S)-mephenytoin as substrate preincubated for 20 mins followed by substrate addition measured after 30 mins in presence of NADPH by LC-MS/MS analysis relative to control. Conditions: probe (S)-mephenytoin, read-out: Activity.

Series [3] concerns the target T1, CYP2C19. Nature of the series: Inhibition of CYP2C19 in human liver microsomes assessed as enzyme-mediated metabolite formation at 3 uM using (S)-mephenytoin as substrate preincubated for 20 mins followed by substrate addition measured after 30 mins in presence of NADPH by LC-MS/MS analysis relative to control. Conditions: probe (S)-mephenytoin, read-out: Activity.

Series [4] deals with T1, CYP2C19. The series can be described thus: Inhibition of CYP2C19 in human liver microsomes assessed as enzyme-mediated metabolite formation at 0.1 uM using (S)-mephenytoin as substrate incubated for 5 mins followed by NADPH addition measured after 30 mins by LC-MS/MS analysis relative to control. The note with it: probe (S)-mephenytoin, read-out: Activity.
The target in series [5] is T4, CYP2A6 (Homo sapiens, UniProt P11509).
T4 sequence (P11509 whole entry): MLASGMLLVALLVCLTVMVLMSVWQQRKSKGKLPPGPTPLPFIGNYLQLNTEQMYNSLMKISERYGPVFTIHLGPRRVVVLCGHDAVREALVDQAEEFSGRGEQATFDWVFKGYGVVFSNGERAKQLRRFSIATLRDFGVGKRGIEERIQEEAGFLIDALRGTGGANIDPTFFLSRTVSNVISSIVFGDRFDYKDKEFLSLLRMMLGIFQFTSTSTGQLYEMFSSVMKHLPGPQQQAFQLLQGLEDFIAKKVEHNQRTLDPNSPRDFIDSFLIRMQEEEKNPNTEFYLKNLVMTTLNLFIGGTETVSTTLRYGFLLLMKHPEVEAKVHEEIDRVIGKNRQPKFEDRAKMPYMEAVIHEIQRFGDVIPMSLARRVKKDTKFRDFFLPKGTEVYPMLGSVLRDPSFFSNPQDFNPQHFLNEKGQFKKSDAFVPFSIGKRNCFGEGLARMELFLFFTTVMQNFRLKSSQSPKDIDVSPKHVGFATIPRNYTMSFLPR
The series can be described thus: Inhibition of CYP2A6 in human liver microsomes assessed as enzyme-mediated metabolite formation at 0.3 uM using coumarin as substrate preincubated for 20 mins followed by substrate addition measured after 30 mins in presence of NADPH by LC-MS/MS analysis relative to control. Conditions: probe coumarin, read-out: Activity.

Series [6] addresses T4, CYP2A6. The series can be described thus: Inhibition of CYP2A6 in human liver microsomes assessed as enzyme-mediated metabolite formation at 1 uM using coumarin as substrate preincubated for 20 mins followed by substrate addition measured after 30 mins in presence of NADPH by LC-MS/MS analysis relative to control. Conditions: probe coumarin, read-out: Activity.

Activity data for one molecule are collected here from ChEMBL document CHEMBL4007467, “Effects of 6-paradol, an unsaturated ketone from gingers, on cytochrome P450-mediated drug metabolism” (Bioorg Med Chem Lett, 2017).

As to `CCCCCCCC(=O)CCc1ccc(O)c(OC)c1`, at CYP2C19 [1], the activity at 0.5 h, 10 µM was 44.5%. In addition, the results for the activity at 0.5 h, 0.3 µM on CYP3A4, at CYP1A2 and on CYP2A6 [5] were 103%, 96.4% and 103%, respectively. Also, the activity at 0.5 h, 30 µM at CYP2C8 is 35.5%; at CYP2D6 it was 80.1%. For the same molecule, the results for the activity at 0.5 h, 0.1 µM at CYP2C19 [2] and at CYP2C19 [4] were 102% and 98.4%, respectively. The activity at 0.5 h, 3 µM at CYP2C19 [3] amounted to 67.6%. Further, at CYP2A6 [6], the activity at 0.5 h, 1 µM is 102%.
